Test results as given in the NIST ThermoML archive (doi:10.1021/je8003832).
Numbers after ± are expanded uncertainties.

Columns and labels:
[1] = 101 kPa, Liquid
[2] = xn = mol fraction of the nth substance listed; conditions: 101 kPa, Liquid, x1 = 1

CCCCn1cc[n+](C)c1.O=S(=O)([O-])C(F)(F)F [1-butyl-3-methylimidazolium trifluoromethanesulfonate]
[1]
Conditions	mass density [kg/m3]	viscosity [mPa·s]
303.15 K	1298.4 ± 4	63.19 ± 4.1
308.15 K	1294.9 ± 4.1	51.73 ± 3.6
313.15 K	1291.4 ± 4.2	42.46 ± 2.8
318.15 K	1287.8 ± 4.3	35.17 ± 2.3
323.15 K	1284.4 ± 4.5	29.55 ± 2
333.15 K	1277.4 ± 4.7	21.61 ± 1.5
343.15 K	1270.5 ± 4.9	16.38 ± 1.1

O [water] + CCCCn1cc[n+](C)c1.O=S(=O)([O-])C(F)(F)F
[2]
Conditions	mass density [kg/m3]	viscosity [mPa·s]
303.15 K	–	0.7977 ± 0.081
308.15 K	–	0.719 ± 0.074
313.15 K	–	0.6532 ± 0.069
318.15 K	–	0.6001 ± 0.064
323.15 K	–	0.547 ± 0.06
333.15 K	983.2 ± 3.3	0.4665 ± 0.053
343.15 K	977.8 ± 3.5	0.404 ± 0.048
